Data reported in US20250138031A1, “IN VITRO MEASUREMENT OF THE LYSIS OF A FIBRIN CLOT” (DIAGNOSTICA STAGO, priority 2021, published 2025).
“Also recorded” adds a separate entry of the source.

Assays:
[1] = tested on: lysis of the fibrin clot in hemophilia-A plasma; experiment: Coagulation-Lysis test (turbidimetric, DOD t1 750 sec / t2 1400 sec) on hemophilia-A plasmas; format: biochemical, human
Procedure: Dynamic measurement of the formation and degradation of the fibrin clot is carried out on a set of samples. The test, called the “Coagulation-Lysis” test, is a turbidimetric, automated, encompassing test for measuring the formation and lysis of the fibrin clot. For the analysis, the invention takes advantage of only the “lysis” part of the fibrin clot formation and lysis curve. The test is performed by mixing the plasma sample, undiluted, with an intermediate reagent containing a very low concentration of tissue factor (TF), phospholipids (PPL), plasminogen activator (tPA), and activator of the intrinsic pathway, preferably factor XIa (FXIa). After incubating the mixture, the calcium reagent triggers the generation of thrombin and the formation of the fibrin clot which quickly begins to be degraded by the tPA (tissue plasminogen activator).
According to one embodiment, TF (tissue factor), PPL (phospholipids), FXIa, and tPA (tissue plasminogen activator) are mixed at the following concentrations: 0.5 pM, 4 μM, 100 PM and 0.13 μg/mL final test.
The undiluted plasma sample, preferably 200 μL, is mixed with the intermediate reagent, preferably 50 μL.
Next is a step of incubating the mixture at 37° C. then adding the calcium ion-based triggering reagent to the mixture (FIG. 1), preferably 50 μL in 102 mM final reagent (17 mM final test), to initiate the thrombin generation and fibrin clot formation (FIG. 1).
Then, the change in optical density is read (FIG. 1) dynamically (every 2 seconds) at a single wavelength between 350 and 800 nm, preferably at 540 nm and preferably for a duration of 1986 seconds (33 minutes).
In the context of this experimental section, the parameters or steps which were specifically used or carried out to obtain the presented results are as follows: • a. TF (tissue factor) and PPL (phospholipids) are mixed with an activator of the intrinsic pathway, FXIa, and tPA (tissue plasminogen activator), at the following concentrations: 0.5 pM, 4 μM, 100 pM, and 0.13 μg/mL final test. • b. The mixture is incubated at 37° C. then the calcium ion-based triggering reagent is added to the mixture, 50 μL in 102 mM final reagent (17 mM final test), to initiate formation of the fibrin clot. • c. The change in optical density is read dynamically (every 2 seconds) at a single wavelength, at 540 nm and for a duration of 1986 seconds (33 minutes). • d. The database is composed of all the deltas of the optical density (DOD) at the different measurement times and for each of the method parameters (Tmax; T09D—90% of the max DOD; TL—50% of the max DOD—max DOD is a measure of optical density). • e. […] This database is used as a training database which is trained on at least 70% of the overloaded samples selected randomly, and as a test database for the remaining overloaded samples (30%), then as a validation database for the patient samples.
The classification group is determined using the two DOD (delta optical density) parameters. For the turbidimetric method used, the times are defined within the ranges of [700-900] sec for time t1 and [1100-1400] sec for time t2. Preferably, time t1 was defined at 750 sec and time t2 was defined at 1400 sec. More precisely, the results shown in the Figures were obtained with t1=750 sec and t2=1400 sec. These parameters were selected in accordance with the method for the optimal choice or verification of these parameters, explained in this description. […] The range for time t2 was defined in combination with the results obtained at time t1.
As we did for the implementation of a viscoelastic method, we carried out turbidimetry tests where a hemophilia-A patient from each group is overloaded with different concentrations of therapeutic molecules of interest.
We wanted to test this type of molecule (below and FIG. 24) at concentrations of 0, 3, 15, and 30 μg/mL (Nougier et al. 2020) compared to the reference FVIII treatment (Advate®) at 0, 2, 20, and 100%. […]

[2] = tested on: lysis of the fibrin clot in hemophilia-A plasma; experiment: Coagulation-Lysis test in turbidimetry with intrinsic activators instead of FXIa; format: biochemical, human; settings: all FVIII concentrations tested, 48 nM GEG, 290 nM silica, TF 0.5 pM
Procedure: The intrinsic activators in Stago reagents are ethylene glycol gallate at 23 mg/L (STA-Cephascreen) and silica at 20 g/L (STA-PTT analyzer).
As was done for the implementation of a viscoelastic method, turbidimetry tests were performed with a hemophilia-A patient from each group, overloaded with 0, 2, 20, 100% of Factor VIII (FVIII-Advate®). The coagulation reaction was initiated with ethylene glycol gallate (GEG) from 48 to 190 nM final test or with silica from 145 to 580 nM final test, without modifying the concentration of tissue factor which was kept at 0.5 pM final test for the two activators. These activators were added independently into the reagent under the same reference conditions as FXIa.
The aim is to determine the maximum difference in tolerance observed in parameters DOD t1, DOD t2, and TL, between FXIa and the intrinsic activators.

[3] = at 15 mg/kg; cited from earlier work
[4] = tested on: inhibitor (antibodies directed against FIX); experiment: Residual titer of FIX after neutralization by the inhibitor in hemophilia-B plasma; format: biochemical, human; settings: 40% Rixubis®, 30 minutes of incubation at 37° C.
From the text: For certain hemophilia patients, the presence of inhibitors justifies the use of emicizumab.

FXIII: Factor XIII or Catridecacog (NovoThirteen® NovoNordisk), activated by thrombin, stabilizes the clot
DOD t2 parameter ([1]; FXIII (NovoThirteen®) mainly in combination with FVIII, patients in the three groups): increases | resistance to lysis ([1]; FXIII in combination with FVIII, patients from the three groups): increases the resistance to lysis | change of classification group ([1]; hemophilia-A patient in group 3, 20% FVIII and 170% FXIII:Ag): moves from group 3 to group 2

O=C(OCCO)c1cc(O)c(O)c(O)c1 [GEG, ethylene glycol gallate]
maximum deviation for parameters DOD t1, DOD t2 and TL compared to the reference method with FXIa ([2]; group 1): −9% | maximum deviation for parameters DOD t1, DOD t2 and TL compared to the reference method with FXIa ([2]; group 2): +3% | maximum deviation for parameters DOD t1, DOD t2 and TL compared to the reference method with FXIa ([2]; group 3): +8%

NC[C@H]1CC[C@H](C(=O)O)CC1 [tranexamic acid]
lysis kinetics of a fibrin clot ([1]; TXA (1 μg/mL, FIG. 7) in addition to maintenance therapy / missing factor FVIII, listed as TXA): becomes slower; also recorded: reducing lysis | classification group after treatment adjustment ([1]; group 3 patients (shortened lysis time), TXA added, FIG. 7): move these patients into group 2 | DOD (delta optical density) at time t2 compared with DOD at time t1 ([1]; plasma concentration of 5 μg/mL of tranexamic acid in the sample): identical | plasma concentration [3]: 2000 ng/mL

Rixubis®: FIX molecule (Takeda) used as replacement molecule for hemophilia B
residual titer of FIX after neutralization ([4]; patient B14): 1% | residual titer of FIX after neutralization ([4]; patient B15): 21%

B1: emicizumab: commercial bispecific antibody mimicking FVIII by forming a complex with activated Factor IX and Factor X (antibody, chains of the INN, looked up, V domains shown)
VH: QVQLVQSGSELKKPGASVKVSCKASGYTFTDNNMDWVRQAPGQGLEWMGDINTRSGGSIYNEEFQDRVIMTVDKSTDTAYMELSSLRSEDTATYHCARRKSYGYYLDEWGEGTLVTVSS
VL: DIQMTQSPSSLSASVGDRVTITCKASRNIERQLAWYQQKPGQAPELLIYQASRKESGVPDRFSGSRYGTDFTLTISSLQPEDIATYYCQQYSDPPLTFGGGTKVEIK
VH2: QVQLVESGGGLVQPGGSLRLSCAASGFTFSYYDIQWVRQAPGKGLEWVSSISPSGQSTYYRREVKGRFTISRDNSKNTLYLQMNSLRAEDTAVYYCARRTGREYGGGWYFDYWGQGTLVTVSS
VL2: B1 VL
classification of patient in group 2 versus group 3 ([1]; at 3 μg/mL emicizumab): overlap in classification | change in the group of overloaded hemophiliacs ([1]; emicizumab overload 0, 3, 15, 30 μg/mL): No change | change to DOD t1 ([1]; emicizumab overload 0, 3, 15, 30 μg/mL, regardless of the patient groups): little change | DOD t2 ([1]; groups 1 and 2, up to 15 μg/mL of emicizumab): increased | change in parameters DOD t1 and DOD t2 ([1]; patient in group 3, emicizumab overload): little change in parameters | resistance to lysis ([1]; patients in groups 1 and 2, emicizumab overload): increasing the resistance to lysis
